From ChEMBL document CHEMBL2331372, “Design and synthesis of D₁ agonist/D₂ antagonist for treatment of schizophrenia” (Bioorg Med Chem Lett, 2013)

Key:
D(1A) dopamine receptor [1] = target: T1, D(1A) dopamine receptor (Homo sapiens, UniProt P21728); assay: Agonist activity at dopamine D1 receptor (unknown origin) transfected in CHO cell membranes assessed as increase in cAMP level after 8 mins by flash plate assay in presence of dopamine; format: functional, cell-based
D(2) dopamine receptor [2] = target: T2, D(2) dopamine receptor (Homo sapiens, UniProt P14416); assay: Displacement of [3H]N-methylspiperone from dopamine D2 receptor (unknown origin) expressed in CHO cell membranes after 60 mins
T2 sequence (P14416 whole entry): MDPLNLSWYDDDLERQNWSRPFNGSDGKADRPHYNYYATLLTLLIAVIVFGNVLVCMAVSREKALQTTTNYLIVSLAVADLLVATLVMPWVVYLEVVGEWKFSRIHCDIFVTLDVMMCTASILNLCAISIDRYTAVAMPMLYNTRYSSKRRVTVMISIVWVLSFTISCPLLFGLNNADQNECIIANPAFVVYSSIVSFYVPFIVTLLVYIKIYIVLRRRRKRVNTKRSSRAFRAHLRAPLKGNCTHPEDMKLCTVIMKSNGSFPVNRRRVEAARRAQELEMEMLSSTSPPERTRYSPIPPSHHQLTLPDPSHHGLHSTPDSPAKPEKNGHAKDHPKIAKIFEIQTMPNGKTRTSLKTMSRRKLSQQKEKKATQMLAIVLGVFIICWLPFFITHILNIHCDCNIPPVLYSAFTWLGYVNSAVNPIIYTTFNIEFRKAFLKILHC

D(2) dopamine receptor [3] = target: T2, D(2) dopamine receptor; assay: Antagonist activity at dopamine D2 receptor (unknown origin) transfected in CHO cell membranes assessed as inhibition of forskolin-stimulated cAMP level after 10 mins by flash plate assay in presence of dopamine; format: functional, cell-based
D(1A) dopamine receptor [4] = target: T1, D(1A) dopamine receptor; assay: Displacement of [3H]SCH23390 from dopamine D1 receptor (unknown origin) expressed in CHO cell membranes after 60 mins
Cytochrome P450 2C19 = Cytochrome P450 2C19 (Homo sapiens, UniProt P33261); assay: Inhibition of CYP2C19 (unknown origin); format: ADME
Sequence of Cytochrome P450 2C19 (P33261 whole entry): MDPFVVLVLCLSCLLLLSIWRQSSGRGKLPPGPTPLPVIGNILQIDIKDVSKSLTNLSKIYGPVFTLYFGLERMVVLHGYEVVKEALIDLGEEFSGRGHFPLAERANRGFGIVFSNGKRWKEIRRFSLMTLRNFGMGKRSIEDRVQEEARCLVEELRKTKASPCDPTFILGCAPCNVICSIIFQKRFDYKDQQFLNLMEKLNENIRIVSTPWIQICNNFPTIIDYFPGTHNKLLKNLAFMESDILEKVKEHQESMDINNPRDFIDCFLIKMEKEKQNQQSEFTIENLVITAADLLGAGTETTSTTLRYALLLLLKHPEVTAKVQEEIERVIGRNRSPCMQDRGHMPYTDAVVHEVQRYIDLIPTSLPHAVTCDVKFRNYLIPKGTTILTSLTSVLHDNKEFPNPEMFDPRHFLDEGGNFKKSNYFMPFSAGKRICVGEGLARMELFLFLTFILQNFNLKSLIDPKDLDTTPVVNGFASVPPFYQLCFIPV

Cytochrome P450 3A4 = Cytochrome P450 3A4 (Homo sapiens, UniProt P08684); assay: Inhibition of CYP3A4 (unknown origin); format: ADME
Sequence of Cytochrome P450 3A4 (P08684 whole entry): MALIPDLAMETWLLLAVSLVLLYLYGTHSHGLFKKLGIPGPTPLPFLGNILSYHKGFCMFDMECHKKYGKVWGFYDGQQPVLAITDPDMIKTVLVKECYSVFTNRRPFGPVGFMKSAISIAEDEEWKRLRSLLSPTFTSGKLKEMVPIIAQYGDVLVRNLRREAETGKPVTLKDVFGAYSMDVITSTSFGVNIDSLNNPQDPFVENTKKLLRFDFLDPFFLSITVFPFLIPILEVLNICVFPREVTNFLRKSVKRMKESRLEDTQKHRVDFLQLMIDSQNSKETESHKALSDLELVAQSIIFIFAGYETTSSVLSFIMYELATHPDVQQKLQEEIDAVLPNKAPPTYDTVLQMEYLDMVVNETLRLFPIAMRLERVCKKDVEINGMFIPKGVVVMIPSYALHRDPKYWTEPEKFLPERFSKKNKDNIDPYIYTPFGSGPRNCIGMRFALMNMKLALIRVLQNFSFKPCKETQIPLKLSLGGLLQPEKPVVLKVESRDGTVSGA

Mus musculus [5] = assay: In vivo receptor occupancy of dopamine D1 receptor in CD1 mouse striatum assessed as inhibition of [3H]SCH23390 binding at 10 mg/kg, sc after 15 mins by scintillation counting analysis; format: functional; conditions: route subcutaneous
Cytochrome P450 2D6 = Cytochrome P450 2D6 (Homo sapiens, UniProt P10635); assay: Inhibition of CYP2D6 (unknown origin); format: ADME
Sequence of Cytochrome P450 2D6 (P10635 whole entry): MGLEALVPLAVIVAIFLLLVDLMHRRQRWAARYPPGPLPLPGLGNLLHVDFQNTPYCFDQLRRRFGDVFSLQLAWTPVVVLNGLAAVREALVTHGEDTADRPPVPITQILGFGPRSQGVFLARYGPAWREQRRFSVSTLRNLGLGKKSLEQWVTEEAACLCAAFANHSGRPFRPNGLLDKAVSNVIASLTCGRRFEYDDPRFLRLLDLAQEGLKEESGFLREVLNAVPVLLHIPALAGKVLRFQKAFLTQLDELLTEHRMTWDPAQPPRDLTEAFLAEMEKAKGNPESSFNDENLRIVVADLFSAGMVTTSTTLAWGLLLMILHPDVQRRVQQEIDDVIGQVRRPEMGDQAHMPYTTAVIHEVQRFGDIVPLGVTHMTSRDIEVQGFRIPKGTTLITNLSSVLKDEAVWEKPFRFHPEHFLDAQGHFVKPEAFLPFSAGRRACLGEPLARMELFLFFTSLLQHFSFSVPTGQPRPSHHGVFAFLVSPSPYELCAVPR

Mus musculus [6] = assay: In vivo receptor occupancy of dopamine D2 receptor in CD1 mouse striatum assessed as inhibition of [3H]N-methylspiperone binding at 10 mg/kg, sc after 15 mins by scintillation counting analysis; format: functional; conditions: route subcutaneous
Cytochrome P450 2C9 = Cytochrome P450 2C9 (Homo sapiens, UniProt P11712); assay: Inhibition of CYP2C9 (unknown origin); format: ADME
Sequence of Cytochrome P450 2C9 (P11712 whole entry): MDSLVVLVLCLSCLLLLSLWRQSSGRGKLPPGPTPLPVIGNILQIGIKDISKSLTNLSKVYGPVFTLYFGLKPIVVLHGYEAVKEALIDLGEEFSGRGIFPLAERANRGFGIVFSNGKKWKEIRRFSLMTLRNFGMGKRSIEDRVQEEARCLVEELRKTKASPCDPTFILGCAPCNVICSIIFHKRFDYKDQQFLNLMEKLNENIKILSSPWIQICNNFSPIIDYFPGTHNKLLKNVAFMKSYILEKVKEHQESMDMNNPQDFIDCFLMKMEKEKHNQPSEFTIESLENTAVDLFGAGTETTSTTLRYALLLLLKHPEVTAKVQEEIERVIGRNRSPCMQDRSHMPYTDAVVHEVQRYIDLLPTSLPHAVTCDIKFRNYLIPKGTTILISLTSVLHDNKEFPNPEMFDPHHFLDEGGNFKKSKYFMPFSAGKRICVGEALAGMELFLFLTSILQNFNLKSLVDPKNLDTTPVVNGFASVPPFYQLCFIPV

Cytochrome P450 1A2 = target: T3, Cytochrome P450 1A2 (Homo sapiens, UniProt P05177); assay: Inhibition of CYP1A2 (unknown origin); format: ADME
T3 sequence (P05177 whole entry): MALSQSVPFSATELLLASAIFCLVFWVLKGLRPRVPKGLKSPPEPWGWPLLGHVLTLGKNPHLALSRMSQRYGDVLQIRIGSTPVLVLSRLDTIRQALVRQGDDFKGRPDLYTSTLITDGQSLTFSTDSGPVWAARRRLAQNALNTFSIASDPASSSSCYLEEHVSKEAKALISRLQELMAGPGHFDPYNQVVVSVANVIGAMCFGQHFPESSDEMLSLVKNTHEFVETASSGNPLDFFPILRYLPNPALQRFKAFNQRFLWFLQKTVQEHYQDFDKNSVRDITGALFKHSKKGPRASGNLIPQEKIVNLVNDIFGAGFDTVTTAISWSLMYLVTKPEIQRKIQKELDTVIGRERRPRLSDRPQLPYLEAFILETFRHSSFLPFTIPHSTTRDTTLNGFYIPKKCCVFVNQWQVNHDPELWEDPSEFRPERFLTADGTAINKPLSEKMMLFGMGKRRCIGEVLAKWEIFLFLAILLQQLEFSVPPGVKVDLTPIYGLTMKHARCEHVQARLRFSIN

T1 sequence (P21728 whole entry): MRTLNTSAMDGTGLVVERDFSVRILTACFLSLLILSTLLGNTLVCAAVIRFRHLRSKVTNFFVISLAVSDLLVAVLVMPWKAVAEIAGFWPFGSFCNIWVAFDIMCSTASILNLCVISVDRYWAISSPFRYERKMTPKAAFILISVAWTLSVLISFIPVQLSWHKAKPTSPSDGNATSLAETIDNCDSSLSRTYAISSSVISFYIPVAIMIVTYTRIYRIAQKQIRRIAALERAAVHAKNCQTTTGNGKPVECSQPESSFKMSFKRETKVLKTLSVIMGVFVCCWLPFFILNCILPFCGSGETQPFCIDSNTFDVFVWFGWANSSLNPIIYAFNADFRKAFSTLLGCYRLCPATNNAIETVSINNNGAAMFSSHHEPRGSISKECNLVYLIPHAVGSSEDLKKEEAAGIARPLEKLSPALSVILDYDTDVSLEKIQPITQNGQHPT

SMILES	EC50 (D(1A) dopamine receptor [1]; read-out: EC50)	Ki (D(2) dopamine receptor [2])	IC50 (D(2) dopamine receptor [3])	Ki (D(1A) dopamine receptor [4])	inhibition (INH) (Cytochrome P450 2C19)	inhibition (INH) (Cytochrome P450 3A4)	IC50 (Cytochrome P450 2D6)	inhibition (INH) (Cytochrome P450 2C9)	inhibition (INH) (Cytochrome P450 1A2)	EC50 (D(1A) dopamine receptor [1]; cho)	Occ (Mus musculus [5])	Occ (Mus musculus [6])
Cc1cc2c(cc1O)[C@H]1C[C@](O)(c3ccc(Cl)cc3)CCN1CC2	750 nM	132 nM	150 nM	45.9 nM	–	–	–	–	–	–	–	–
COc1cc2c(cc1O)[C@H]1C[C@@](O)(c3ccc(OC(F)(F)F)cc3)CCN1CC2	5 nM	4 nM	6 nM	2 nM	Not Active	Not Active	840 nM	Not Active	Not Active	–	95%	75%
Cc1cc2c(cc1O)[C@H]1C[C@@](O)(c3ccc(Cl)cc3)CCN1CC2	11 nM	12.3 nM	220 nM	5.5 nM	–	–	–	–	–	–	–	–
COc1ccc2c(c1)CCN1CC[C@@](O)(c3ccc(Cl)cc3)C[C@H]21	–	> 10000 nM	–	3340 nM	–	–	–	–	–	Not Active	–	–

Now from value to molecule, other results behind:

EC50 (D(1A) dopamine receptor [1]; read-out: EC50)	Ki (D(2) dopamine receptor [2])	IC50 (D(2) dopamine receptor [3])	Ki (D(1A) dopamine receptor [4])	inhibition (INH) (Cytochrome P450 2C19)	inhibition (INH) (Cytochrome P450 3A4)	IC50 (Cytochrome P450 2D6)	inhibition (INH) (Cytochrome P450 2C9)	inhibition (INH) (Cytochrome P450 1A2)	EC50 (D(1A) dopamine receptor [1]; cho)	SMILES	Occ (Mus musculus [5])	Occ (Mus musculus [6])
–	195 nM	1010 nM	252 nM	–	–	–	–	–	Not Active	COc1ccc2c(c1)CCN1CC[C@](O)(c3ccc(Cl)cc3)C[C@H]21	–	–
8 nM	14.8 nM	–	4 nM	–	–	–	–	–	–	COc1cc2c(cc1O)[C@H]1C[C@@](O)(c3ccc(Cl)cc3)CCN1CC2	–	–
–	101 nM	380 nM	244 nM	–	–	–	–	–	Not Active	COc1cc2c(cc1O)[C@H]1C[C@](O)(c3ccc(Cl)cc3)CCN1CC2	–	–
